Values of other authors as cited in patent US20160030582A1 (MAYNE PHARMA INTERNATIONAL PTY. LTD., priority 2012, published 2016).
Where two headings read alike, the source gives them in different places.

Experiments:
[1] = test system: typical infecting organisms for specific superficial and systemic mycoses; set-up: MIC90: unit not given here; conditions: for MIC RANGE: in µg/mL
[2] = Aspergillosis, A. flavus complex
[3] = Aspergillosis, A. fumigatus complex
[4] = Aspergillosis, A. nidulans complex
[5] = Aspergillosis, A. niger complex
[6] = Aspergillosis, A. terreus complex
[7] = tinea capitis, Microsporum sp. (audounti, canis, gypseum, ferrugineum et al.)
[8] = tinea capitis, Trichophyton sp. (tonsurans violaceum, soudanese, schoenleinii, mentagrophytes, verrucossum, et al.)
[9] = tinea corporis, Epidermophyton floccosum
[10] = tinea corporis, Microsporum sp. (canis, gypseum, et al.)
[11] = tinea corporis, Trichophyton sp. (rubrum, tonsurans interdigitale, mentagrophytes, concentricim, violaceum et al.)
[12] = tinea cruris, Epidermophyton floccosum
[13] = tinea cruris, Microsporum sp. (canis, et al.)
[14] = tinea cruris, Trichophyton sp. (rubrum, tonsurans interdigitale, mentagrophytes, et al.)
[15] = tinea manuum, Epidermophyton floccosum
[16] = tinea manuum, Trichophyton sp. (rubrum, interdigitale, mentagrophytes.)
[17] = tinea pedis, Epidermophyton floccosum
[18] = tinea pedis, Microsporum sp. (canis, gypseum, et al.)
[19] = tinea pedis, Trichophyton sp. (rubrum, tonsurans interdigitale, mentagrophytes, et al.)
[20] = tinea unguium, Epidermophyton floccosum
[21] = tinea unguium, Microsporum sp. (canis, et al.)
[22] = tinea unguium, Trichophyton sp. (rubrum, tonsurans interdigitale, mentagrophytes, et al.)

CCC(C)n1ncn(-c2ccc(N3CCN(c4ccc(OCC5COC(Cn6cncn6)(c6ccc(Cl)cc6Cl)O5)cc4)CC3)cc2)c1=O (centres unmarked) [itraconazole]
MIC90 [1]: MIC90 = 0.06
MIC90 [1, 2]: MIC90 = 0.5
MIC RANGE [1, 2]: 0.03-8
MIC90 [1, 3]: MIC90 = 0.5
MIC RANGE [1, 3]: 0.03-16
MIC90 [1, 4]: MIC90 = 0.25
MIC RANGE [1, 4]: 0.03-8
MIC90 [1, 5]: MIC90 = 0.5
MIC RANGE [1, 5]: 0.03-8
MIC90 [1, 6]: MIC90 = 0.25
MIC RANGE [1, 6]: 0.03-1
MIC90 ([1]; Candidiasis, C. albicans): MIC90 = 0.125
MIC RANGE ([1]; Candidiasis, C. albicans): 0.008-8
MIC RANGE ([1]; Candidiasis, C. glabrata): 0.008-16
MIC RANGE ([1]; Candidiasis, C. kruset): 0.008-8
MIC RANGE ([1]; Candidiasis, C. tropicalis): 0.03-8
MIC RANGE ([1]; Pityriasis versicolor, Malassezia sp. (florfur, globosa, obtuse, sympodialis etc).): 0.3-16
MIC RANGE [1]: 0.03-8
MIC90 [1, 7]: MIC90 = 0.25-0.5
MIC RANGE [1, 7]: 0.01-4
MIC90 [1, 8]: MIC90 = 0.25-0.5
MIC RANGE [1, 8]: 0.01-8
MIC90 [1, 9]: MIC90 = 0.125
MIC RANGE [1, 9]: 0.01-8
MIC90 [1, 10]: MIC90 = 0.25-0.5
MIC RANGE [1, 10]: 0.01-4
MIC90 [1, 11]: MIC90 = 0.25-0.5
MIC RANGE [1, 11]: 0.01-8
MIC90 [1, 12]: MIC90 = 0.125
MIC RANGE [1, 12]: 0.01-8
MIC90 [1, 13]: MIC90 = 0.25-0.5
MIC RANGE [1, 13]: 0.01-4
MIC90 [1, 14]: MIC90 = 0.25-0.5
MIC RANGE [1, 14]: 0.01-8
MIC90 [1, 15]: MIC90 = 0.125
MIC RANGE [1, 15]: 0.01-8
MIC90 [1, 16]: MIC90 = 0.25-0.5
MIC RANGE [1, 16]: 0.01-8
MIC90 [1, 17]: MIC90 = 0.125
MIC RANGE [1, 17]: 0.01-8
MIC90 [1, 18]: MIC90 = 0.25-0.5
MIC RANGE [1, 18]: 0.01-4
MIC90 [1, 19]: MIC90 = 0.25-0.5
MIC RANGE [1, 19]: 0.01-8
MIC90 [1, 20]: MIC90 = 0.125
MIC RANGE [1, 20]: 0.01-8
MIC90 [1, 21]: MIC90 = 0.25-0.5
MIC RANGE [1, 21]: 0.01-4
MIC90 [1, 22]: MIC90 = 0.25-0.5
MIC RANGE [1, 22]: 0.01-8
expected apparent plasma terminal elimination half-life (t½) (basis for sampling schedule of Example 12): 22 h
reduction of Cmax and AUC in the fasting state (compared to administration after a light meal): 50-70%
excreted unchanged in the feces (oral dose): 3-18%
